Results: publication PMC9916762, “Impact of Hydrophobic Chains in Five-Coordinate Glucoconjugate Pt(II) Anticancer Agents” (International Journal of Molecular Sciences, 2023)

Assays:
[1] = system: murine fibroblast BALB/c-3T3 transformed with the SV40 virus (SVT2); assay: MTT cell viability assay, SVT2; format: cell-based
Excerpt: The immortalized human keratinocytes (HaCaT) were from Innoprot.

[2] = system: SVT2 cells; assay: Cellular Pt uptake by ICP-MS, SVT2; format: cell-based, murine; settings: SVT2, 9.8 μM (IC50), 48 h, mean ± S.E.
Method: In particular, SVT2 and A431 were incubated for 48 h with 1-Me,Me and 1-Oct,Me, using the IC50 value concentrations. At the end of incubation, uptake and cell death mechanisms were evaluated. […] Finally, apoptosis was investigated by Western blot analyses using specific antibodies against pro-caspases 9 and 3.
To study the uptake of the complexes, SVT2 and A431 were incubated for 48 h in the presence of 1-Me,Me and 1-Oct,Me, respectively, at their IC50 concentrations. At the end of incubation, Pt determination was performed by inductively coupled plasma mass spectrometry (ICP-MS, Aurora M90; Bruker, Ettlingen/Leipzig, Germany) in the “Normal Sensitivity” mode. Calibration curves for the quantification of Pt ranged from 0.1 to 100 μg/L and were constructed daily by the analysis of the standard solutions prepared immediately before analysis. All standards used for analysis were prepared in HNO3 solution (2%, v/v). The internal standards were ^89Y and ^115In in both the calibration curve and sample analyses. The linearity was acceptable with an R^2 value greater than 0.9996. The treatment of the cells involved a wet digestion: after centrifugation, cell samples were wet digested with 1 mL of ultrapure HNO3 (67–69%, v/v). The mixture was gently boiled over a water bath (90 °C) for 3 h until a clear solution was obtained. […]

## Platinum(1+), (2,9-dimethyl-1,10-phenanthroline- N1,N10)(η2-ethene)methyl[1,3-dihydro-1,3-dimethyl-4-[1-[2,3,4,6-tetrakis-O-(acetyl)-β-D-glucopyranosyl]-1H-1,2,3-triazol-4-yl]-2H-imidazol-2-ylidene], 1,1,1-trifluoromethanesulfonate [1-Me,Me]
[1]; 48 h incubation, MTT
  IC50: 9.8 ± 0.3 µM
[1]; ratio IC50 BALB-c/3T3 / IC50 SVT2
  SI (selectivity index): 2.65
[2]
  Pt uptake: 0.772 ± 0.010 Pt ng/10^6 cells
